The source of these data is patent publication US12617773B2, “Azetidin-3-ylmethanol derivatives as CCR6 receptor modulators” (Idorsia Pharmaceuticals Ltd, priority 2020, dated 2026).

The structures appear in SMILES notation.

By IC50 is commonly meant the point on the concentration scale where inhibition reaches its midpoint.

The target in this experiment is T1, human CCR6 (Homo sapiens, UniProt P51684).
T1 construct: expressed in transfected cells; host or cells: HEK-293
T1 sequence (P51684 1-374): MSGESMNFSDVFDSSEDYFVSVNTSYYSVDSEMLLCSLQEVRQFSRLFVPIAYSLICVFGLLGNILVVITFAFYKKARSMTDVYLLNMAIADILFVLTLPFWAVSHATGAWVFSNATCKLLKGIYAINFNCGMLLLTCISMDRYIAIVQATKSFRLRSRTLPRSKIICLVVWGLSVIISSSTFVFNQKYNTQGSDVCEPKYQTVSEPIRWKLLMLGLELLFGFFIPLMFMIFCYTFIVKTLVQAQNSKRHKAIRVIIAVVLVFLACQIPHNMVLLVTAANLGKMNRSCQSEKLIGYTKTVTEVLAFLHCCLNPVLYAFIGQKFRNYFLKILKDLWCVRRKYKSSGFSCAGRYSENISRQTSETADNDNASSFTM
Put plainly: FLIPR assay (inhibition of CCL20-induced calcium signal). It is filed as cell-based. The note with it: HEK-293 cells expressing human CCR6; mean values where determined several times; read-out: FLIPR IC50. The method, boiled down: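 Dye-loaded HEK-293 cells expressing human CCR6 were preincubated with compound for 30 min at room temperature in the dark, then challenged with 10 nM CCL20 (final). Fluorescence was tracked on FLIPR, and baseline-subtracted peak emission over base after agonist addition gave inhibition dose-response curves for IC50.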
Turning to `CC(C)c1ccc([C@](O)(c2cncc(-c3noc(C4CCN(C(=O)CC5COC5)CC4)n3)c2)C2(C)CN(C)C2)cc1` [Example 474, 1-[4-(3-{5-[(R)-(1,3-Dimethyl-azetidin-3-yl)-hydroxy-(4-isopropyl-phenyl)-methyl]-pyridin-3-yl}-[1,2,4]oxadiazol-5-yl)-piperidin-1-yl]-2-oxetan-3-yl-ethanone], the concentration for half-maximal inhibition (IC50) was 121 nM.

On to `CCC1(c2nc(-c3cncc([C@@](O)(c4ccc(C(C)C)cc4)C4(C)CN(C)C4)c3)no2)CCN(C(C)=O)CC1` [Example 475], for which the IC50 was found to be 54.7 nM.

For `CC(C)c1ccc([C@](O)(c2cncc(-c3noc(C4CCN(C(=O)C5COC5)CC4)n3)c2)C2(C)CN(C)C2)cc1` [Example 476], the IC50 was 112 nM.

On to `COCC(=O)N1CCC(c2nc(-c3cncc([C@@](O)(c4ccc(C(C)C)cc4)C4(C)CN(C)C4)c3)no2)(C(C)C)CC1` [Example 477], for which the IC50 amounted to 33.9 nM.

Consider `CC(C)c1ccc([C@](O)(c2cncc(-c3noc(C4CCC(=O)N(C)C4)n3)c2)C2(C)CN(C)C2)cc1` (stereo partly drawn) [Example 479, 5-(3-{5-[(R)-(1,3-Dimethyl-azetidin-3-yl)-hydroxy-(4-isopropyl-phenyl)-methyl]-pyridin-3-yl}-[1,2,4]oxadiazol-5-yl)-1-methyl-piperidin-2-one], for which the IC50 is 112 nM.

On to `CC(C)c1ccc([C@](O)(c2cncc(-c3noc(C4(C)CCC(=O)NC4)n3)c2)C2(C)CN(C)C2)cc1` (stereo partly shown) [Example 480], for which the 50% inhibitory concentration (IC50) was determined as 128 nM.

With `CC(C)c1ccc([C@](O)(c2cncc(-c3noc(C4CCC(=O)NC4)n3)c2)C2(C)CN(C)C2)cc1` (stereo partly shown) [Example 481], the IC50 was 184 nM.

Consider `CC(C)c1ccc([C@](O)(c2cncc(-c3noc(C4(C)CNC(=O)C4)n3)c2)C2(C)CN(C)C2)cc1` (stereo partly shown) [Example 482], for which the IC50 was 92.3 nM.

Turning to `CC(C)c1ccc([C@](O)(c2cncc(-c3noc(CN4C(=O)CC(C)(C)C4=O)n3)c2)C2(C)CN(C)C2)cc1` [Example 483], the IC50 was 73.1 nM.

As to `CC(C)c1ccc([C@](O)(c2cncc(-c3noc(CN4CC(=O)NC4=O)n3)c2)C2(C)CN(C)C2)cc1` [Example 484], the IC50 came to 593 nM.

`CC(C)c1ccc([C@](O)(c2cncc(-c3noc(CN4CCCC4=O)n3)c2)C2(C)CN(C)C2)cc1` [Example 485]: the IC50 amounted to 259 nM.

Regarding `CC(C)c1ccc([C@](O)(c2cncc(-c3noc(CN4C(=O)CNC4=O)n3)c2)C2(C)CN(C)C2)cc1` [Example 486], the 50% inhibitory concentration (IC50) stood at 287 nM.

In the case of `CC(C)c1ccc([C@](O)(c2cncc(-c3noc(CN4C(=O)CN(C)C4=O)n3)c2)C2(C)CN(C)C2)cc1` [Example 487], the IC50 was 248 nM.

Regarding `CC(C)c1ccc([C@](O)(c2cncc(-c3noc(CN4CC(=O)N(C)C4=O)n3)c2)C2(C)CN(C)C2)cc1` [Example 488], the IC50 was determined as 382 nM.

On to `CC(C)c1ccc([C@](O)(c2cncc(-c3noc(CN4CCOC4=O)n3)c2)C2(C)CN(C)C2)cc1` [Example 489], for which the IC50 came to 135 nM.

On to `CC(C)c1ccc([C@](O)(c2cncc(-c3noc(CN4CCN(C5CC5)C4=O)n3)c2)C2(C)CN(C)C2)cc1` [Example 490], for which the IC50 is 143 nM.

On to `CC(C)c1ccc([C@](O)(c2cncc(-c3noc(CN4C(=O)CCC4=O)n3)c2)C2(C)CN(C)C2)cc1` [Example 491], for which the IC50 is 172 nM.

Take `CC(C)c1ccc([C@](O)(c2cncc(-c3noc(CN4CCN(C)C4=O)n3)c2)C2(C)CN(C)C2)cc1` [Example 492]: the half-maximal inhibitory concentration (IC50) came out at 267 nM.

Take `CC(C)c1ccc([C@](O)(c2cncc(-c3noc(CN4CCNC4=O)n3)c2)C2(C)CN(C)C2)cc1` [Example 493]: the IC50 was found to be 185 nM.

Consider `CC(C)c1ccc([C@](O)(c2cncc(-c3noc(C(C)(O)CO)n3)c2)C2(C)CN(C)C2)cc1` (stereo partly shown) [Example 494], for which the IC50 came to 240 nM.

For the compound `CC(C)c1ccc([C@](O)(c2cncc(-c3noc(-c4cccnc4)n3)c2)C2(C)CN(C)C2)cc1` [Example 495], the IC50 was found to be 20.9 nM.

On to `CC(=O)N1CCC(Cc2nc(-c3cncc([C@@](O)(c4ccc(C(C)C)cc4)C4(C)CN(C)C4)c3)no2)CC1` [Example 496], for which the IC50 came to 69.7 nM.

As for `CC(C)c1ccc([C@](O)(c2cncc(-c3noc(CC#N)n3)c2)C2(C)CN(C)C2)cc1` [Example 497], the IC50 is 74.3 nM.

As for `CC(=O)N1CCC(O)(c2nc(-c3cncc([C@@](O)(c4ccc(C(C)C)cc4)C4(C)CN(C)C4)c3)no2)CC1` [Example 498, 1-[4-(3-{5-[(R)-(1,3-Dimethyl-azetidin-3-yl)-hydroxy-(4-isopropyl-phenyl)-methyl]-pyridin-3-yl}-[1,2,4]oxadiazol-5-yl)-4-hydroxy-piperidin-1-yl]-ethanone], the IC50 turned out to be 234 nM.

On to `CC(C)c1ccc([C@](O)(c2cncc(-c3noc(CCC#N)n3)c2)C2(C)CN(C)C2)cc1` [Example 499, 3-(3-{5-[(R)-(1,3-Dimethyl-azetidin-3-yl)-hydroxy-(4-isopropyl-phenyl)-methyl]-pyridin-3-yl}-[1,2,4]oxadiazol-5-yl)-propionitrile], for which the IC50 is 53.8 nM.

Turning to `COC1CN(C(C)=O)CCC1c1nc(-c2cncc([C@@](O)(c3ccc(C(C)C)cc3)C3(C)CN(C)C3)c2)no1` (stereo partly drawn) [Example 500, 1-[4-(3-{5-[(R)-(1,3-Dimethyl-azetidin-3-yl)-hydroxy-(4-isopropyl-phenyl)-methyl]-pyridin-3-yl}-[1,2,4]oxadiazol-5-yl)-3-methoxy-piperidin-1-yl]-ethanone], the IC50 came to 149 nM.

For `CC(=O)N1CCC[C@@H](c2nc(-c3cncc([C@@](O)(c4ccc(C(C)C)cc4)C4(C)CN(C)C4)c3)no2)C1` [Example 501, 1-[(R)-3-(3-{5-[(R)-(1,3-Dimethyl-azetidin-3-yl)-hydroxy-(4-isopropyl-phenyl)-methyl]-pyridin-3-yl}-[1,2,4]oxadiazol-5-yl)-piperidin-1-yl]-ethanone], the 50% inhibitory concentration (IC50) was determined as 108 nM.

Regarding `CC(C)c1ccc([C@](O)(c2cncc(-c3noc(C4(O)CCOCC4)n3)c2)C2(C)CN(C)C2)cc1` [Example 502], the IC50 amounted to 65.8 nM.

As to `CC(C)c1ccc([C@](O)(c2cncc(-c3noc(C45CC(CO)(C4)C5)n3)c2)C2(C)CN(C)C2)cc1` [Example 503], the IC50 turned out to be 51.1 nM.

For the compound `CC(C)c1ccc([C@](O)(c2cncc(-c3noc(C4CC(=O)N(C)C(=O)C4)n3)c2)C2(C)CN(C)C2)cc1` [Example 504], the IC50 stood at 143 nM.

As for `CC(C)c1ccc([C@](O)(c2cncc(-c3noc(C(F)(F)CO)n3)c2)C2(C)CN(C)C2)cc1` [Example 505], the IC50 amounted to 35.9 nM.

`COc1cccc(-c2nc(-c3cncc([C@@](O)(c4ccc(C(C)C)cc4)C4(C)CN(C)C4)c3)no2)c1` [Example 506]: the concentration for half-maximal inhibition (IC50) was found to be 24 nM.

With `CC(C)c1ccc([C@](O)(c2cncc(-c3noc(C(C)C)n3)c2)C2(C)CN(C)C2)cc1` [Example 507], the IC50 amounted to 32.7 nM.

Turning to `Cc1cc(-c2nc(-c3cncc([C@@](O)(c4ccc(C(C)C)cc4)C4(C)CN(C)C4)c3)no2)ncn1` [Example 508], the IC50 worked out at 49.1 nM.

Consider `CC(=O)N1CC[C@@H](Cc2nc(-c3cncc([C@@](O)(c4ccc(C(C)C)cc4)C4(C)CN(C)C4)c3)no2)C1` [Example 514], for which the IC50 came to 142 nM.

As to `Cc1nc(-c2cncc([C@@](O)(c3ccc(C(C)C)cc3)C3(C)CN(C)C3)c2)no1` [Example 517, (R)-(1,3-Dimethyl-azetidin-3-yl)-(4-isopropyl-phenyl)-[5-(5-methyl-[1,2,4]oxadiazol-3-yl)-pyridin-3-yl]-methanol], the IC50 was determined as 63.5 nM.

Turning to `CC(C)c1ccc([C@](O)(c2cncc(-c3noc(C(C)(F)F)n3)c2)C2(C)CN(C)C2)cc1` [Example 518, (R)-{5-[5-(1,1-Difluoro-ethyl)-[1,2,4]oxadiazol-3-yl]-pyridin-3-yl}-(1,3-dimethyl-azetidin-3-yl)-(4-isopropyl-phenyl)-methanol], the concentration for half-maximal inhibition (IC50) is 41.2 nM.

With `CC(C)c1ccc([C@](O)(c2cncc(-c3nc(C4(O)CCOCC4)no3)c2)C2(C)CN(C)C2)cc1` [Example 519, 4-(5-{5-[(R)-(1,3-Dimethyl-azetidin-3-yl)-hydroxy-(4-isopropyl-phenyl)-methyl]-pyridin-3-yl}-[1,2,4]oxadiazol-3-yl)-tetrahydro-pyran-4-ol], the IC50 was determined as 168 nM.

For `CC(C)c1ccc([C@](O)(c2cncc(-c3nc(COC(C)(C)C)no3)c2)C2(C)CN(C)C2)cc1` [Example 520], the IC50 turned out to be 62.6 nM.

For the compound `CC(C)c1ccc([C@](O)(c2cncc(-c3nc(CO)no3)c2)C2(C)CN(C)C2)cc1` [Example 521], the IC50 worked out at 153 nM.

Consider `CC(=O)N1CCN(c2noc(-c3cncc([C@@](O)(c4ccc(C(C)C)cc4)C4(C)CN(C)C4)c3)n2)CC1` [Example 522], for which the IC50 was 119 nM.

On to `CC(=O)N1CC(Cc2noc(-c3cncc([C@@](O)(c4ccc(C(C)C)cc4)C4(C)CN(C)C4)c3)n2)C1` [Example 523], for which the half-inhibitory concentration (IC50) was found to be 297 nM.

With `CC(C)c1ccc([C@](O)(c2cncc(-c3nc(CC4(O)CCOCC4)no3)c2)C2(C)CN(C)C2)cc1` [Example 524, 4-(5-{5-[(R)-(1,3-Dimethyl-azetidin-3-yl)-hydroxy-(4-isopropyl-phenyl)-methyl]-pyridin-3-yl}-[1,2,4]oxadiazol-3-ylmethyl)-tetrahydro-pyran-4-ol], the IC50 stood at 178 nM.
